# Laboratory results: patent US20050113413A1, “Naphthalene-1,5-disulfonic acid salts of a substituted 4-amino-1-(pyridylmethyl)piperidine compound” (priority 2003, published 2005)
# Experiment: Chemical stability of salt forms (change in purity by HPLC upon storage)
# Format: physicochemical
# Settings: 40° C. and 75% relative humidity, 7 days, HPLC Method D
# Description: The chemical stability of each salt form was evaluated by determining the change in purity of the sample upon storage of the salt form at 40° C.
# Prior to storage, each salt form was analyzed by HPLC (Method D) to determine sample purity and in particular, to determine the amount of the following impurities present in the sample: • A. 3-[4-{N-[7-(3-(S)-1-Carbamoyl-1,1-diphenylmethyl)pyrrolidin-1-yl)hept-1-yl]-N-(isopropyl)amino}piperidin-1-ylmethyl]-4-methoxy-1-methylpyridinium Salt (Impurity A); • B. 4-{N-[7-(3-(S)-1-Carbamoyl-1,1-diphenylmethyl)pyrrolidin-1-yl)hept-1-yl]-N-(isopropyl)amino}-1-(4-oxo-1,4-dihydropyrid-3-ylmethyl)piperidine (Impurity B).
# Approximately 50-100 mg of the salt form was then placed in two heat sealed low density polyethylene bags. The bags were then placed into a stability chamber that was previously set at 40° C. and 75% relative humidity. After 7 days, the bags were removed and the contents were analyzed by HPLC.
compound,measurement,setting,value
COc1ccncc1CN1CCC(N(CCCCCCCN2CC[C@@H](C(C(N)=O)(c3ccccc3)c3ccccc3)C2)C(C)C)CC1 [Example 6],% Change in Impurity A,,<0.1%
same,% Change in Impurity B,,<0.1%
same,% Change in Purity of Salt,heat sealed polyethylene bags,1.2%
